Experimental data from patent publication US20060041013A1, “Alanosine formulations and methods of use” (priority 2004, published 2006).
Where two headings read alike, the source gives them in different places.

Tests used:
[1] = humans, intravenous, biphasic plasma clearance; times approximate; cited from earlier work
[2] = tested on: NCI-H322M; experiment: Docetaxel, 5-FU, SDX-102 alone or combined, MTT/MTS cytotoxicity (Example 4); format: cell-based; conditions: Homo sapiens, NSCLC, single agent, MTT 72 hours
[3] = tested on: mice; conditions: cited from earlier work
[4] = tested on: NCI-H2452; experiment: Docetaxel, 5-FU, SDX-102 alone or combined, MTT/MTS cytotoxicity (Example 4); format: cell-based; conditions: Homo sapiens; NCI-H2452, Mesothelioma, single agent, MTT 72 hours
[5] = format: physicochemical; conditions: for Amount degraded/day (%) / Predicted purity after 2 years: Arrhenius analysis
Method: An Arrhenius analysis was performed to predict the loss of potency and increase in degradation products over time for commonly used storage temperatures for many drugs. […] Sets of the different solutions were then placed at 40° C., 50° C., or 60° C., and samples were taken every ten days over a 60 day period. […] Specifically, these plots show a distinct difference in purity as a function of pH and temperature. […] In the pH 7.5 formulation, there was more of each of these four impurities as compared to the pH 8.5 formulation. The impurity at RRT 0.32 formed readily as a function of temperature and pH. The impurities at RRTs 0.43 and 0.46 also formed as a function of temperature and pH, but not as readily.
Indeed, the purity of the samples is similar at pH 8.5 and 9.0. […] The trends in the data shown in FIG. 5 allow an Arrhenius analysis to be performed to predict changes in purity over time at various temperatures, particularly 5° C. and 25° C. Linear regression was used to determine the positions of the lines shown in FIG. 5, which then allowed the slope of the lines (i.e., the reaction rates, per day) to be determined for each pH and a given temperature. Arrhenius plots were the generated for each of pHs 7.5, 8.5 and 9.0 from the reaction rate versus the inverse temperatures. These plots are shown in FIG. 7, which allow the equation of the lines for each of three liquid formulations to be calculated. From these equations, the purity of any given temperature for a particular formulation at a given time can be predicted.
The HPLC system (Waters Corp., model 2690 Gradient HLPC System) employed a 4.6 mm×250 mm column (MetaChem Inc.) containing 5 μm particles (Inertsil ODS-3) as the stationary phase. The system was equipped with a UV/VIS detector (Waters Corp., model 996) set to 226 nm to monitor products being eluted from the column. Data generated from the column was managed on a personal computer running Empower Software (Waters Corp.). After preparation, the column was washed with at least 100 mL of water/acetonitrile (90:10, v/v), and stored at ambient temperature in the same solution.
In each HPLC run, the mobile phase, flowing at 1.0 mL/min., comprised 7.0 g of anhydrous monobasic potassium phosphate (KH2PO4; JT Baker) dissolved in 1000 mL H2O (at least HPLC grade). The pH of the solution was adjusted to 2.5 using phosphoric acid (85%, Fisher Scientific). 2.4 g of 1-decane sulfonic acid, sodium salt (Avocado Research Chemicals) was then mixed into the solution. 50 mL of acetonitrile (HPLC Grade, Burdick & Jackson) was then mixed with 950 mL of this solution. This mixture was then degassed by filtering through Durapore membrane filters, 0.45 μm, Type HVLP, under vacuum. The column flow rate was set at 1.0 mL/min.
Diluent was prepared by dissolving 3.5 g KH2PO4 and 3.5 g (Na2HPO4, Mallincrodt) in 1000 mL of HPLC grade H2O. […] Once prepared, an alanosine standard solution was stored at ambient temperature and retained for no more than seven days.
In addition to an alanosine standard solution, a sensitivity standard was also prepared by diluting 1 mL of the alanosine standard solution 1:100 using diluent.
HPLC runs were performed after the column had equilibrated for at least three hours in the mobile phase at room temperature. Column suitability was assessed at the beginning and end of each series of experiment as follows. Initially, two 10 μL aliquots of diluent were injected onto the column in duplicate, and the chromatographs recorded and examined.

[6] = Cell viability MTT assay (Example 3); format: cell-based; conditions: 72 h; A-594, NSCLC, MTAP Negative; 3 days
[7] = cited from earlier work
[8] = tested on: NCI-H226; experiment: Cell viability MTT assay (Example 3); format: cell-based; conditions: Homo sapiens, 72 h; NCI-H226, Mesothelioma, MTAP Positive; 3 days

For `NC(CN(O)N=O)C(=O)O` [L-alanosine, L(−)-2-amino-3-nitrosohydroxylaminopropionic acid], the t1/2α [1] is listed as about 14 min, the t1/2β [1] is listed as about 99 min and the IC50 [2] is listed as 6 ± 1 µM. The LD50 ([3]; administered intraperitoneally) was 600 mg/kg, the LD50 ([3]; given intravenously) was 300 mg/kg and the IC50 [4] was 1 ± 0.5 µM. The “Amount degraded/day (%)” value ([5]; 20 mg/mL, pH 7.5, 5° C.) was 0.000374%, the “Predicted purity after 2 years” value ([5]; 20 mg/mL, pH 7.5, 5° C.) was 99.727% and the “Amount degraded/day (%)” value ([5]; 20 mg/mL, pH 7.5, 25° C.) was 0.000601%. For the same compound, the “Predicted purity after 2 years” value ([5]; 20 mg/mL, pH 7.5, 25° C.) was 99.561%, the “Predicted purity after 2 years” value ([5]; 20 mg/mL, pH 8.5, 5° C.) was 99.985% and the “Predicted purity after 2 years” value ([5]; 20 mg/mL, pH 8.5, 25° C.) was 99.930%. The calculated purity ([5]; 20 mg/mL, pH 8.5-9.0, stored at 25° C., at least two years) was “more than 99.9%”, the “Predicted purity after 2 years” value ([5]; 20 mg/mL, pH 9.0, 5° C.) was 100.00% and the “Predicted purity after 2 years” value ([5]; 20 mg/mL, pH 9.0, 25° C.) was 100.00%. For the same compound, the “trend in purity over 60 days” value ([5]; solutions pH 7.5, 8.5, 9.0 stored at 40° C.) was “no trend in decreased purity”, the IC50 [6] was 0.4 µM and the “single bolus dose at which renal toxicity reported” value ([7]; human, in vivo) was “above 4 g/m^2 body weight”. The dose-limiting toxicity ([7]; phase II, adults with acute non-lymphoblastic leukemia, continuous infusion about 125 mg/m^2 for 5 days) was “mucositis” and the IC50 [8] was 1.5 µM.
